In PubChem BioAssay AID1626 (SRMLSC, 2009):

System: M. tuberculosis H37Rv growth inhibition
Test: M. tuberculosis H37Rv growth inhibitors, H37Rv strain (AID 1626)
Conditions: for IC90: measured here: IC90 against H37Rv; for CC50: measured here: Vero cell cytotoxicity

Compound | IC50 [µM] | IC90 [µM] | CC50 [µM]
Cc1sc2nc(CN3CCOCC3)[nH]c(=S)c2c1C | 13.3 | > 100 | > 40
Cc1cc(-n2c(C)cc(C(=O)COc3ccc4ccc(=O)oc4c3)c2C)no1 | 8.15 | > 100 | > 40
Cc1ccccc1-n1ncc2c([N+](=O)[O-])cc([N+](=O)[O-])cc21 | 2.97 | 4.48 | > 40
O=C(/C=C/c1ccc(-c2ccc(F)cc2)o1)N1CCCC1 | 14 | > 100 | 
CCC(=O)OCCNc1cc(SCCC(=O)OC)c2nonc2c1[N+](=O)[O-] | 12.2 | 19.5 | 
Cc1ccn2c(Nc3ccccc3C)c(-c3ccccn3)nc2c1 | 1.42 | 1.59 | 3.12
Cc1nnc(NC(=O)c2ccc3ccccc3c2)o1 | 0.719 | 1.46 | > 40
COc1ccc(NS(=O)(=O)c2ccc3nc(COc4cccc5ccccc45)[nH]c3c2)cc1 | 9.84 | 15 | 29.6
CCOC(=O)CSc1ncc(-c2cccc(Cl)c2)cn1 | 1.35 | 3.11 | 
CCOC(=O)C1=Nc2ccccc2C1=[N+]=[N-] | 0.906 | 1.23 | 36.7
COc1ccc(-c2oc3ncn(Cc4ccco4)c(=N)c3c2-c2ccc(OC)cc2)cc1 | 8.35 | 13.9 | 23.7
CC(C)Cn1c(N2CCN(C(=O)/C=C/c3ccccc3)CC2)nc2ccccc21 | 21.5 | 29.9 | 
O=c1[nH][nH]c(-c2ccccc2O)c1C(C[N+](=O)[O-])c1ccc(Br)cc1 (stereo unspecified) | 11.2 | 24.5 | 18.2
CCOC(=O)c1c(-c2ccccc2)csc1NC(=O)c1cc2ccccc2oc1=O | < 0.195 | 0.623 | > 40
Cc1ccc(C(=O)CC(=O)COc2ccc(Cl)cc2)cc1 | 6.66 | > 100 | > 40
COc1ccc(N=C(NN)c2ccc3ccccc3n2)cc1 | 54.6 | > 100 | 
c1ccc(CC2CCN(c3nc4ccccc4n4cnnc34)CC2)cc1 | 1.77 | 3.44 | > 40
Cc1nc(N2CCN(Cc3ccc(Cl)cc3)CC2)c2oc3ccccc3c2n1 | 15.7 | 19.8 | > 40
O=c1[nH]c(CN2CCCCC2)nc2c1C1(CCCCC1)Cc1ccccc1-2 | 4.01 | > 100 | 
CC(=O)Nc1cccc(OCc2ccc(F)cc2)c1 |  | > 100 | > 40

Compound | IC50 [µM] | IC90 [µM] | CC50 [µM]
CC1Cc2ccccc2N1C(=O)COC(=O)c1ccc(Cl)nc1 (stereo unspecified) | 10.7 | > 100 | 
CCOc1ccc(Nc2nc(N)nc(CCl)n2)cc1 | 23.2 | > 100 | 0.194
CCOc1ccc(NC(=O)c2ccccc2CO)cc1 | 9.45 | > 100 | 
COC(=O)/C(=C1/Oc2cc(C)oc(=O)c2S1)C(F)(F)F | 0.698 | 23.8 | 6.33
O=C(CSCC(=O)N1CCCCC1)Nc1nc(-c2ccc(Cl)s2)cs1 | 44 | > 100 | 
CCCc1nnc(NC(=O)c2c(O)c3cccc4c3n(c2=O)CCC4)s1 | < 0.391 | < 0.391 | 25.6
CCn1c(NC(=O)c2cccc(Cn3cc(Cl)cn3)c2)nc2ccccc21 | 3.65 | > 100 | > 40
OCC#CCSc1nnc(-c2ccc(Br)cc2)o1 | 0.543 | 17.9 | 
CCOC(=O)c1ccc(N=Cc2nc3ccccc3n2C)cc1 | 12.7 | > 100 | 
CCOc1ccc2nc(NC(=O)c3ccccn3)sc2c1 | 1.36 | 3.07 | 15.1
CC(=O)Nc1cccc(C(=O)/C=C/c2ccc(C)cc2)c1 | 33.7 | > 100 | 13.7
CCn1c(CNc2ccc(F)cc2)nnc1SCC(=O)OC1CCCCC1 | 12 | 13.7 | 
COC(=O)COc1ccc2c(=O)c(-c3ccccc3OC)coc2c1 | 3.01 | 5.62 | 
CCS(=O)(=O)Nc1ccc(-c2cc(-c3ccccc3)c3cc(C)ccc3n2)cc1 | 9.19 | 13.5 | 34.7
CSc1nc2ccc(NS(=O)(=O)c3cccc(Cl)c3Cl)cc2s1 |  | > 100 | 
COc1cc(NS(=O)(=O)c2ccc(N)cc2)ncn1 | 6.02 | 12.2 | 
Cc1ccc(C2CC(C(F)(F)F)n3ncc(C(=O)NCc4ccco4)c3N2)cc1 (stereo unspecified) | < 0.195 | 3.64 | 
CC1CCN(c2nc(/C=C/c3ccccc3)nc3ccccc23)CC1 | 10.1 | 12.8 | > 40
O=C1c2ccccc2C(Nc2ccc(-c3nc4ccccc4[nH]3)cc2)N1Cc1ccco1 (stereo unspecified) | 9.03 | 20.8 | > 40
CCOC(=O)c1ccc(NS(=O)C23CC4CC(CC(C4)C2)C3)cc1 (stereo unspecified) | 7.62 | > 100 | 
